2 compounds from ChEMBL document CHEMBL5029141, “Three-Dimensional Proteome-Wide Scale Screening for the 5-Alpha Reductase Inhibitor Finasteride: Identification of a Novel Off-Target” (J Med Chem, 2021) can be followed below.

For orientation: inhibition means the percentage by which the read-out fell short of the control.

Assay [1] has as its target T1, Phenylethanolamine N-methyltransferase (Homo sapiens) (UniProt P11086).
T1 sequence (whole entry): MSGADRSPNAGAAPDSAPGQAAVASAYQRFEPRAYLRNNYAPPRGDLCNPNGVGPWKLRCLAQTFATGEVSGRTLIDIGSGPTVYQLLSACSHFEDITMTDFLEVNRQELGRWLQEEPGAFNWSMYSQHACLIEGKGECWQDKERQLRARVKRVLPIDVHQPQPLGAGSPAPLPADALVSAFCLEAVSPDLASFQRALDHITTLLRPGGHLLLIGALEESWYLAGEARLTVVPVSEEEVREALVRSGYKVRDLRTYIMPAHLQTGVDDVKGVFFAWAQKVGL
Kind of assay: Inhibition of human recombinant PNMT using AdoMet and DL-norepinephrine hydrocloride as substrate preincubated for 30 mins followed by substrate addition and measured after 30 mins by fluorescence based analysis relative to control. The note with it: time 1.0 hrs.

The test system of assay [2] is Rattus norvegicus. Kind of assay: In vivo inhibition of PNMT in Sprague-Dawley rat assessed as increase in norepinephrine level in adrenal gland at 1 mg, sc administered once daily for 20 days and measured after 24 hrs post last dose by liquid chromatography tandem mass spectrometry analysis. Conditions: time 20.0 day. The format is functional, organism-based.
Assay [3] relates to Rattus norvegicus. Description: In vivo inhibition of PNMT in Sprague-Dawley rat assessed as decrease in epinephrine level in adrenal gland at 1 mg, sc once daily treated for 20 days and measured after 24 hrs post last dose by liquid chromatography tandem mass spectrometry analysis. The format is functional, organism-based. Conditions: time 20.0 day.
The subject of assay [4] is Rattus norvegicus. Description: Effect on PNMT protein expression level in Sprague-Dawley rat at 1 mg, sc once daily treated for 20 days and measured after 24 hrs post last dose by western blot analysis. The format is functional, organism-based. The note with it: time 20.0 day. In general terms: Immunoblotting shows a protein as a band on a membrane.

The source made the active and inactive calls. The rule behind the calls is not given here.

For the compound `CC(N)c1cccc(Cl)c1Cl` (stereo not given), in assay [1], the inhibition turned out to be 60%.

Regarding `CC(C)(C)NC(=O)[C@H]1CC[C@H]2[C@@H]3CC[C@H]4NC(=O)C=C[C@]4(C)[C@H]3CC[C@]12C`, in assay [1], the inhibition was more than 30%. The outcome in assay [2] and in assay [3] was Active. In assay [4], the outcome was inactive.
